Molecular target: T1, PP2A (Homo sapiens, UniProt P62714)
T1 construct: endogenous in cells; host or cells: 293T
Assay: PP2A activity in 293T cells stimulated with ATG analogues
Assay type: cell-based
Conditions: 10 μM, DMSO as reference, FIG. 11
Description: The biological activities of the three compounds were determined by measuring the downstream PP2A activity and the degree of phosphorylation of NF-kB. […] The concentrations of ATG and the three new compounds were 10 μM.

T1 sequence (P62714 whole entry): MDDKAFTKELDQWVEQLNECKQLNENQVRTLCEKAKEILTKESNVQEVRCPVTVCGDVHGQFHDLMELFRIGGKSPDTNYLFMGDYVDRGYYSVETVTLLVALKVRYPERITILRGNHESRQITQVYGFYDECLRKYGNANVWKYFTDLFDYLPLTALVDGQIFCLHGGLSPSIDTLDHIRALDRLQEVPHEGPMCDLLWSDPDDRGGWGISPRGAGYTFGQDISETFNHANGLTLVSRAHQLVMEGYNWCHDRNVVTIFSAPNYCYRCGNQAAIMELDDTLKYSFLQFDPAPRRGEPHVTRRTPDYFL

Substance: Potassium trifluoro (4-(5-(3,4,5-trimethoxyphenyl)-1,2,4-oxadiazol-3-yl) phenyl) borate [BT282]
- effect on PP2A activity relative to native ATG: higher activity to PP2A than natural ATG

Reference: US9994533B2, “Method of preparing ATG's analogue, and the application of ATG and it's analogue” (Longhua Hospital Shanghai University of Traditional Chinese …, priority 2016, dated 2018)
